What was measured:
[1] = Effective concentration against A2AR mediated P12 adenylatencyclase activity; format: functional, Rattus norvegicus
Adenosine receptor A1 [2] = molecular target: T1, Adenosine receptor A1 (Rattus norvegicus, UniProt P25099)
T1 sequence (P25099 whole entry): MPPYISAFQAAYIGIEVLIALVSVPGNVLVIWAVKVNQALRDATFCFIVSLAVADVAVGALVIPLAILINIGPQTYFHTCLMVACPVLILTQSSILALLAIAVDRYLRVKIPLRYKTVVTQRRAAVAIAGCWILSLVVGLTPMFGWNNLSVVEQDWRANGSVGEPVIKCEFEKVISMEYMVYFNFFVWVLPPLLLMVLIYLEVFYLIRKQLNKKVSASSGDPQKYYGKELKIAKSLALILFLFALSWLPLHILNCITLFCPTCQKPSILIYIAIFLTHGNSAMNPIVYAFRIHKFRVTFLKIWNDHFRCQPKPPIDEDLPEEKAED

Adenosine A2 receptor = Adenosine A2 receptor (Rattus norvegicus, UniProt P29276+P30543); assay: Inhibition of [3H]- NECA binding to adenosine receptor A2; format: protein assay
[3] = Concentration required to increase Adenosine A2A receptor mediated P12 Adenylate cyclase activity; format: functional, Rattus norvegicus
Adenosine receptor A1 [4] = molecular target: T1, Adenosine receptor A1; assay: Inhibition of [3H]- (R)-P1A binding to adenosine A1 receptor

Compound	EC50 [1]	Ki (Adenosine receptor A1 [2])	Ki (Adenosine A2 receptor)	EC50 [3]	Ki (Adenosine receptor A1 [4])
Nc1ncnc2c1ncn2[C@@H]1O[C@H](CO)[C@@H](O)[C@H]1O [ADENOSINE]	–	–	–	0.15 µM	–
Nc1nc(Cl)nc2c1ncn2[C@@H]1O[C@H](CO)[C@@H](O)[C@H]1O	–	–	–	0.46 µM	0.0067 µM
OC[C@H]1O[C@@H](n2cnc3c(NC4CCCC4)ncnc32)[C@H](O)[C@@H]1O [N6-CYCLOPENTYLADENOSINE]	3.2 µM	–	0.51 µM	–	–
C[C@@H](Cc1ccccc1)Nc1ncnc2c1ncn2[C@@H]1O[C@H](CO)[C@@H](O)[C@H]1O [(S)-PIA]	–	–	–	4.2 µM	–

More lines, now with the values ahead:

EC50 [1]	Ki (Adenosine receptor A1 [2])	Ki (Adenosine A2 receptor)	EC50 [3]	Ki (Adenosine receptor A1 [4])	Compound
0.98 µM	–	–	–	–	C[C@H](Cc1ccccc1)Nc1ncnc2c1ncn2[C@@H]1O[C@H](CO)[C@@H](O)[C@H]1O [(R)-PIA]
3.1 µM	0.016 µM	1.2 µM	–	–	OC[C@H]1O[C@@H](n2cnc3c(Nc4ccccc4)ncnc32)[C@H](O)[C@@H]1O [N6-PHENYLADENOSINE]
1.6 µM	0.0076 µM	1.7 µM	–	–	OC[C@H]1OC(n2cnc3c(Nc4ccccc4)nc(Cl)nc32)[C@H](O)[C@@H]1O (stereo not given in full)
3 µM	0.02 µM	3 µM	–	–	C[C@@H](Cc1ccccc1)Nc1nc(Cl)nc2c1ncn2[C@@H]1O[C@H](CO)[C@@H](O)[C@H]1O
0.73 µM	–	–	–	–	OC[C@H]1O[C@@H](n2cnc3c(NC4CCCC4)nc(Cl)nc32)[C@H](O)[C@@H]1O
0.32 µM	0.0014 µM	0.22 µM	–	–	C[C@H](Cc1ccccc1)Nc1nc(Cl)nc2c1ncn2[C@@H]1O[C@H](CO)[C@@H](O)[C@H]1O
